Results from patent US12667735B2, “Methods for reducing pain during photodynamic therapy of actinic keratosis” (Sun Pharmaceutical Industries, Inc., priority 2019, dated 2026).
Values joined by “and” are separate entries in the source; they are usually repeats but may differ in a detail not shown here. Identical values can stand only once.

What was measured:
[1] = Pain during blue light illumination (0 to 10 VAS); format: in vivo, human; conditions: for Pain score (0-to-10 VAS) during illumination / Pain score (0-to-10 VAS) during illumination, Mean: individual patients; for Pain score (0-to-10 VAS) during illumination, Mean: mean over time points; for Mean VAS pain score during illumination: all 23 patients, linear mixed-effect model, 0-10 scale
Description: The term “Visual Analogue Scale for Pain (referred to as VAS pain score hereafter) as used herein, is defined as follows: An 11-point numerical pain scale wherein patients report a number (from 0 to 10) that most closely reflects the level of pain they are experiencing at that particular moment; 0 corresponds to no pain and 10 corresponds to the worst pain imaginable (Breivik, HaraldScandinavian Journal of Pain 2016; 11:150-152).
(§1) Several secondary endpoints were also measured. For pain assessment, patients were asked every 5 to 10 min during illumination to report their pain on a 0 to 10 visual-analog (VAS) scale. Erythema was recorded photographically at Day 1 and on Day 4 post PDT. A side effect profile was recorded by each patient in a daily home questionnaire to document the presence or absence of eleven different signs and symptoms in the 4 days immediately following PDT (see Table 2).
The primary endpoint was AK lesion reduction. […] Statistical significance was considered with a p-value <0.05.

[2] = Daily home questionnaire of side effects, first 4 days after PDT; format: in vivo, human; conditions: Side A (test PDT); for Pain Score Mean (0-10 visual-analog scale): average of 23 patients
Description: as §1

NCC(=O)CCC(=O)O [ALA, 5-aminolevulinic acid]
Pain score (0-to-10 VAS) during illumination ([1]; SIDE A (test PDT), 10 min during illumination, 30 min test PDT cohort): 0 (3×) and 2 and 3 and 1
Pain score (0-to-10 VAS) during illumination ([1]; SIDE A (test PDT), 10 min during illumination, 45 min test PDT cohort): 0 (5×) and 1 (3×)
Pain score (0-to-10 VAS) during illumination ([1]; SIDE A (test PDT), 10 min during illumination, 60 min test PDT cohort): 0
Pain score (0-to-10 VAS) during illumination ([1]; SIDE A (test PDT), 20 min during illumination, 30 min test PDT cohort): 0 (2×) and 2 and 5 and 1 (2×)
Pain score (0-to-10 VAS) during illumination ([1]; SIDE A (test PDT), 20 min during illumination, 45 min test PDT cohort): 0 (6×) and 1 (2×)
Pain score (0-to-10 VAS) during illumination ([1]; SIDE A (test PDT), 20 min during illumination, 60 min test PDT cohort): 0
Pain score (0-to-10 VAS) during illumination ([1]; SIDE A (test PDT), 30 min during illumination, 30 min test PDT cohort): 0 (2×) and 2 and 6 and 1 (2×)
Pain score (0-to-10 VAS) during illumination ([1]; SIDE A (test PDT), 30 min during illumination, 45 min test PDT cohort): 0 (7×) and 1
Pain score (0-to-10 VAS) during illumination ([1]; SIDE A (test PDT), 30 min during illumination, 60 min test PDT cohort): 0
Pain score (0-to-10 VAS) during illumination ([1]; SIDE A (test PDT), 40 min during illumination, 45 min test PDT cohort): 0 (6×) and 1 (2×)
Pain score (0-to-10 VAS) during illumination ([1]; SIDE A (test PDT), 40 min during illumination, 60 min test PDT cohort): 0
Pain score (0-to-10 VAS) during illumination ([1]; SIDE A (test PDT), 50 min during illumination): 0
Pain score (0-to-10 VAS) during illumination, Mean ([1]; SIDE A (test PDT), 30 min test PDT cohort): 0.0 (3×) and 2.0 and 4.7 and 0.7 and 1.0
Pain score (0-to-10 VAS) during illumination, Mean ([1]; SIDE A (test PDT), 45 min test PDT cohort): 0.0 (4×) and 0.3 (2×) and 1.0 and 0.5
Pain score (0-to-10 VAS) during illumination, Mean ([1]; SIDE A (test PDT), 60 min test PDT cohort): 0.0 (5×) and 0.8 (2×) and 0.2
Pain score (0-to-10 VAS) during illumination ([1]; SIDE B (control PDT), 5 min during illumination, 30 min test PDT cohort): 2 and 10 (2×) and 4 and 5 and 3
Pain score (0-to-10 VAS) during illumination ([1]; SIDE B (control PDT), 5 min during illumination, 45 min test PDT cohort): 8 and 4 (3×) and 3 and 2 and 5 and 1
Pain score (0-to-10 VAS) during illumination ([1]; SIDE B (control PDT), 5 min during illumination, 60 min test PDT cohort): 1
Pain score (0-to-10 VAS) during illumination ([1]; SIDE B (control PDT), 10 min during illumination, 30 min test PDT cohort): 1 and 7 and 5 and 4 and 3 (2×)
Pain score (0-to-10 VAS) during illumination ([1]; SIDE B (control PDT), 10 min during illumination, 45 min test PDT cohort): 3 (3×) and 2 and 4 and 5 (2×) and 1
Pain score (0-to-10 VAS) during illumination ([1]; SIDE B (control PDT), 10 min during illumination, 60 min test PDT cohort): 1
Pain score (0-to-10 VAS) during illumination ([1]; SIDE B (control PDT), 15 min during illumination, 30 min test PDT cohort): 0 and 5 and 6 and 4 and 1 and 3
Pain score (0-to-10 VAS) during illumination ([1]; SIDE B (control PDT), 15 min during illumination, 45 min test PDT cohort): 0 and 2 (3×) and 1 and 3 and 4 and 5
Pain score (0-to-10 VAS) during illumination ([1]; SIDE B (control PDT), 15 min during illumination, 60 min test PDT cohort): 0
Pain score (0-to-10 VAS) during illumination, Mean ([1]; SIDE B (control PDT), 30 min test PDT cohort): 1.0 and 7.3 and 7.0 and 4.0 and 3.0 (2×) and 4.7
Pain score (0-to-10 VAS) during illumination, Mean ([1]; SIDE B (control PDT), 45 min test PDT cohort): 3.7 (2×) and 3.0 and 2.7 and 1.7 and 4.3 and 5.0 and 1.3
Pain score (0-to-10 VAS) during illumination, Mean ([1]; SIDE B (control PDT), 60 min test PDT cohort): 0.7 and 6.3 and 4.3 and 1.0 and 3.7 (2×) and 6.7 and 0.3
Mean VAS pain score during illumination ([1]; Side A (test PDT)): 0.52
Mean VAS pain score during illumination ([1]; Side B (control PDT)): 3.57
Pain during illumination, test PDT side versus control side ([1]; substantially no pre-illumination gap versus 1 hour gap): drastically reduced
Bleeding ([2]; DAY 1): 0, 0 percentage of patients
Blisters ([2]; DAY 1): 13, 13 percentage of patients
Burning ([2]; DAY 1): 65, 65 percentage of patients
Crusting ([2]; DAY 1): 9 percentage of patients
Itching ([2]; DAY 1): 43, 43 percentage of patients
Open sores ([2]; DAY 1): 0, 0 percentage of patients
Peeling ([2]; DAY 1): 4 percentage of patients
Redness ([2]; DAY 1): 91, 91 percentage of patients
Stinging ([2]; DAY 1): 65, 65 percentage of patients
Swelling ([2]; DAY 1): 26 percentage of patients
Pain Score Mean (0-10 visual-analog scale) ([2]; DAY 1): 3.0
Bleeding ([2]; DAY 2): 17 percentage of patients
Blisters ([2]; DAY 2): 4 percentage of patients
Burning ([2]; DAY 2): 52, 52 percentage of patients
Crusting ([2]; DAY 2): 9 percentage of patients
Itching ([2]; DAY 2): 74, 74 percentage of patients
Open sores ([2]; DAY 2): 9, 9 percentage of patients
Peeling ([2]; DAY 2): 4 percentage of patients
Redness ([2]; DAY 2): 100, 100 percentage of patients
Stinging ([2]; DAY 2): 70, 70 percentage of patients
Swelling ([2]; DAY 2): 26, 26 percentage of patients
Pain Score Mean (0-10 visual-analog scale) ([2]; DAY 2): 2.5
Bleeding ([2]; DAY 3): 13 percentage of patients
Blisters ([2]; DAY 3): 17 percentage of patients
Burning ([2]; DAY 3): 35, 35 percentage of patients
Crusting ([2]; DAY 3): 30 percentage of patients
Itching ([2]; DAY 3): 70 percentage of patients
Open sores ([2]; DAY 3): 9, 9 percentage of patients
Peeling ([2]; DAY 3): 22 percentage of patients
Redness ([2]; DAY 3): 91 percentage of patients
Stinging ([2]; DAY 3): 39, 39 percentage of patients
Swelling ([2]; DAY 3): 9 percentage of patients
Pain Score Mean (0-10 visual-analog scale) ([2]; DAY 3): 1.6
Bleeding ([2]; DAY 4): 17 percentage of patients
Blisters ([2]; DAY 4): 4 percentage of patients
Burning ([2]; DAY 4): 26, 26 percentage of patients
Crusting ([2]; DAY 4): 35, 35 percentage of patients
Itching ([2]; DAY 4): 65, 65 percentage of patients
Open sores ([2]; DAY 4): 4, 4 percentage of patients
Peeling ([2]; DAY 4): 48 percentage of patients
Redness ([2]; DAY 4): 83 percentage of patients
Stinging ([2]; DAY 4): 35, 35 percentage of patients
